Measurements published in patent publication US8895526B2, “Identification of RNAI targets and use of RNAI for rational therapy of chemotherapy-resistant leukemia and other cancers” (Cold Spring Harbor Laboratory, priority 2009, dated 2014).

Assays:
[1] = tested on: MLL-AF9/Nras leukemia cells; conditions: different concentrations
[2] = tested on: non-transformed 32D cell line; conditions: different concentrations
[3] = Tolerability of anthracycline in mice; type: in vivo; conditions: applied intraperitoneally
Experimental: To study factors that influence the outcome of conventional AML therapy in mice, we established a simple chemotherapy regimen involving intraperitoneal injection of cytarabine (100 mg/kg over 5 days) and doxorubicin (3 mg/kg over 3 days; FIG. 36A), which mimics the standard induction therapy used to treat AML in human patients. […] Efficacy and safety of this regimen were initially evaluated in a previously described model based on co-transduction of MLL/ENL and FLT3-ITD (Ono et al. 2005). In order to rapidly generate homogenous treatment cohorts we harvested bone marrow and spleen from terminally ill primary FLC recipient mice and transplanted 1 million leukemia cells into 20-30 secondary recipients. In initial studies, we noted that this combination therapy was not tolerated in mice when treatment was initiated based on a high leukemia burden in the peripheral blood; although the peripheral disease disappeared within two days, animals died shortly thereafter with peripheral leukopenia.

HCT116 cells [4] = experiment: siRNA cytotoxicity: reduction in HCT116 culture confluency after transfection; type: cell-based, human; conditions: relative to negative control RNAi cultures
Experimental: siRNAs derived from the shRNAs of Example 2 were all highly cytotoxic to HCT116 cells. The siRNA sequences and shRNAs from which they were derived are shown below
Cytotoxicity was determined by the reduction in culture confluency over time after transfection of the siRNA relative to negative control RNAi cultures.

HCT116 cells [5] = experiment: HCT116 proliferation assay: cell counts of shRNA-transduced cultures; type: cell-based, human; conditions: 5 days post-infection; normalized to EBNA1mi1666 and Lucifmi203 cultures
Experimental: HCT116 cultures in 24-well plates were infected separately with amphotropic retrovirus encoding 254 different shRNAs targeting 83 cell cycle and/or E2F regulated genes. On day 1 following infection each culture was suspended in media containing 1.5 μg/mL puromycin to select for cells transduced with the hairpins, then seeded to 6-well plates. On day 5 following infection, cells in each culture were suspended in media and counted using a hemacytometer. Results for each culture were normalized to the average of the number of cells counted in cultures transduced with hairpins targeting either of two different genes not endogenous to HCT116 cells (EBNA1 and Ff-luciferase).
About 24 hours prior to infection, 150,000 HCT116 cells were seeded per well of a 24-well plate in 0.4 mL DMEM+10% FBS. At the time of the first round of infection, culture media was aspirated from each HCT116 culture and 0.5 mL media containing virus, obtained from ˜36-hour post-transfection packaging cell culture as described above, was added to each HCT116 culture. Each HCT116 culture was infected with virus encoding a particular shRNA. […]
About 24 hours after the second round of infection of the HCT116 cultures, cells from each culture were suspended and seeded to 6-well plates in 2 mL DMEM+10% FBS+1.5 μg/mL puromycin per well. […] Following two more days of growth (day 5 post-infection), cells in each culture were suspended in complete DMEM and cell numbers per culture were counted using a hemacytometer. […]
In each experiment, HCT116 cells were also transduced with hairpins against EBNA1 (EBNA1mi1666) and Ff-luciferase (lucifmi203). […] Similar to cultures transduced with other shRNAs, on day 5 post-infection, HCT116 cells in cultures transduced with either EBNA1mi1666 or Lucifmi203 were suspended and counted using a hemacytometer. […]
The average cell number in HCT116 cultures transduced with EBNA1mi1666 and Lucifmi203 was calculated for each experiment and cell numbers in cultures transduced with the other shRNAs in the given experiment were normalized to this value. […]

[6] = tested on: Mouse hepatocellular carcinoma cells (Hepa1.6); experiment: Hepa1.6 colony formation assay; type: cell-based; conditions: high MOI, low density plating, crystal violet
Experimental: (FIG. 8A) Mouse hepatocellular carcinoma cells (Hepa1.6) were transduced at high MOI with shRNAs targeting replication genes. Cells were plated at low density, stained with crystal violet, and staining was quantified on a Licor scanner. Values are normalized to empty vector control. (FIG. 8B) Representative scans of colony formation assays of cells infected with an antiproliferative shRNA (top—shRpa3.457) or empty vector control (bottom).
An assay similar to that described in Example 1 was used to test the effect of RNAi molecules against genes encoding DNA replication proteins in mouse cancer cells (Hepa1.6). Similar results in mouse cells were observed as compared to human cells (FIG. 8 and FIG. 9). For example, mouse tumors regress upon induction of RNAi against Rpa3 (FIG. 17).

Hepa1.6 cells = experiment: In vitro competition assay in Hepa1.6 cells; type: cell-based, mouse; conditions: five passages 1:8
Source text: Two days after transduction with a GFP-tagged vector, the number of fluorescent cells was quantified. Cells were passaged 1:8 five times, and the number of GFPpositive transduced cells was quantified at each passage.

[7] = tested on: mouse liver carcinoma cells; experiment: Subcutaneous liver carcinoma tumor growth after doxycycline induction of shRNA; type: in vivo, nude mice; conditions: doxycycline 2 mg/ml in drinking water from two weeks after injection
Experimental: One million mouse liver carcinoma cells transduced with an inducible shRpa3.457 were injected subcutaneously in nude mice. Two weeks after injection, mice were either treated with doxycycline 2 mg/ml in their drinking water, or left untreated. Change in tumor volumes was measured following treatment.

N[C@@H]1C[C@H]1c1ccccc1 (racemic) [tranylcypromine]
proliferation [1]: dose-dependent inhibition | growth [2]: no impact | growth (HL60): an effect on growth | growth (Kasumi1): an effect on growth | growth (Molm13): an effect on growth

COc1cccc2c1C(=O)c1c(O)c3c(c(O)c1C2=O)C[C@@](O)(C(C)=O)C[C@@H]3O[C@H]1C[C@H](N)[C@H](O)[C@H](C)O1 [daunorubicin]
toxicity [3]: high toxicity

RPA3si1417: siRNA CAUCUUAUGUCCAGUUUAA (SEQ ID NO: 1), derived from v2HS_32101 (listed as RNA, chemistry not fully specified)
cytotoxicity (reduction in culture confluency over time) (HCT116 cells [4]): more cytotoxic than RPA3si1403

B1: Orc2mil981: shRNA targeting ORC2, SEQ ID NO: 19 (nucleic acid)
chain: TGCTGTTGACAGTGAGCGAGAGGCTTGAAGCTTTCCTTTATAGTGAAGCCACAGATGTATAAAGGAAAGCTTCAAGCCTCCTGCCTACTGCCTCGGA
Cell # in culture/average cell number in negative control cultures (HCT116 cells [5]): 0.8496

B2: shRpa3.457: shRNA, SEQ ID NO: 60 (nucleic acid)
chain: TGCTGTTGACAGTGAGCGCGCGACTCCTATAATTTCTAATTAGTGAAGCCACAGATGTAATTAGAAATTATAGGAGTCGCTTGCCTACTGCCTCGGA
effect on colony formation [6]: antiproliferative | competition with uninfected GFP-negative cells (Hepa1.6 cells): outcompeted by uninfected, GFP-negative cells | change in tumor volumes [7]: stopped growing or regressed

B3: shPCNA.538: shRNA, SEQ ID NO: 56 (nucleic acid)
chain: TGCTGTTGACAGTGAGCGCGGAGTACAGCTGTGTAATAAATAGTGAAGCCACAGATGTATTTATTACACAGCTGTACTCCTTGCCTACTGCCTCGGA
competition with uninfected GFP-negative cells (Hepa1.6 cells): outcompeted by uninfected, GFP-negative cells

B4: mi550: shRNA targeting ORC1, SEQ ID NO: 17 (nucleic acid)
chain: TGCTGTTGACAGTGAGCGCGGAAATATTCTGGTATGATTATAGTGAAGCCACAGATGTATAATCATACCAGAATATTTCCTTGCCTACTGCCTCGGA
Cell # in culture/average cell number in negative control cultures (HCT116 cells [5]): 0.8719

B5: Orc2mil903: shRNA targeting ORC2, SEQ ID NO: 18 (nucleic acid)
chain: TGCTGTTGACAGTGAGCGAGGAACTGATGGAGTAGAGTATTAGTGAAGCCACAGATGTAATACTCTACTCCATCAGTTCCCTGCCTACTGCCTCGGA
Cell # in culture/average cell number in negative control cultures (HCT116 cells [5]): 0.7115
